The format of the data set is physicochemical. An excerpt:
c. Stabilizing the kit for longer shelf life.
Results: The wash buffer that enabled only three washing steps was the one that contained non-ionic detergent, this being the above-noted PBS-TWEEN buffer (see constituent no. (ii) in the above list).
This is also the case for the other reagents used in the improved kit, as mentioned above.

For `O=S(=O)([O-])c1ccc(N=Nc2c(O)ccc3cc(S(=O)(=O)[O-])ccc23)cc1.[Na+].[Na+]` [yellow sunset], the “storage stability at 4° C. (in words)” value was “for one year” and the “storage stability at 37° C. (in words)” value is given as “stable for one month”.

For `CCN(Cc1cccc(S(=O)(=O)[O-])c1)c1ccc(C(=C2C=CC(=[N+](CC)Cc3cccc(S(=O)(=O)[O-])c3)C=C2)c2ccccc2S(=O)(=O)[O-])cc1.[Na+].[Na+]` [blue brilliant], the “storage stability at 4° C. (in words)” value is reported as “for one year” and the “storage stability at 37° C. (in words)” value was “stable for one month”.
